Measured values from ChEMBL document CHEMBL4673185 (RSC Med Chem, 2020).
Positions of bridges follow the written chain, without caps; N, C: chain ends. Non-standard residues stand in square brackets, D forms with d. Residues, ends and D or L forms follow the SMILES beside them. Gla = N[C@@H](CC(C(=O)O)C(=O)O)C(=O)O

Legend:
[1] = Half life in iv dosed Wistar rat serum measured after 2 to 20 mins by HPLC analysis; format: ADME, organism-based; settings: time 2-20 min
Insulin receptor = Insulin receptor (Homo sapiens, UniProt P06213); experiment: Activation of human IR-B expressed in mouse NIH3T3 cells assessed as increase in Akt phosphorylation at Ser473 residue incubated for 30 mins by HTRF method; format: cell-based
Chain of Insulin receptor (P06213 28-758 limits assumed): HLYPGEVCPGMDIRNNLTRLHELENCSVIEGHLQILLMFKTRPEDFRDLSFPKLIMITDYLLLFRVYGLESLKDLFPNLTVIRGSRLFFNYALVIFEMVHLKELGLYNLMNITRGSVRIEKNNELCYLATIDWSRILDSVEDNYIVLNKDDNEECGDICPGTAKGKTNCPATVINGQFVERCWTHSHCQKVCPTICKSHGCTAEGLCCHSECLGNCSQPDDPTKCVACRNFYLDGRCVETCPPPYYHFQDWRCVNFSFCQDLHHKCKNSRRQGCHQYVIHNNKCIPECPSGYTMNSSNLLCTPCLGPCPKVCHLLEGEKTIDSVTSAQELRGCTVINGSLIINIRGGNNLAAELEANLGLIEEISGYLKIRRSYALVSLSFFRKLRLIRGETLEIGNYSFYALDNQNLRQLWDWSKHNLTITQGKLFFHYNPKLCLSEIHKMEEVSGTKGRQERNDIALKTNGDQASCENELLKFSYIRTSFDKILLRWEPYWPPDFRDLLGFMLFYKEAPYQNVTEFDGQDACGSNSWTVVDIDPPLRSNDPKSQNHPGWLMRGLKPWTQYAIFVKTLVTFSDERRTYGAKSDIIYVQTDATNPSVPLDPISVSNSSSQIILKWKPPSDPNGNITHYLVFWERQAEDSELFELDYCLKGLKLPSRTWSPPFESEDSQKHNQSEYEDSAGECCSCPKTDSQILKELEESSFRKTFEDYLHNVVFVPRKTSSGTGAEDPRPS
Chain of Insulin receptor (P06213 763-1382 limits assumed): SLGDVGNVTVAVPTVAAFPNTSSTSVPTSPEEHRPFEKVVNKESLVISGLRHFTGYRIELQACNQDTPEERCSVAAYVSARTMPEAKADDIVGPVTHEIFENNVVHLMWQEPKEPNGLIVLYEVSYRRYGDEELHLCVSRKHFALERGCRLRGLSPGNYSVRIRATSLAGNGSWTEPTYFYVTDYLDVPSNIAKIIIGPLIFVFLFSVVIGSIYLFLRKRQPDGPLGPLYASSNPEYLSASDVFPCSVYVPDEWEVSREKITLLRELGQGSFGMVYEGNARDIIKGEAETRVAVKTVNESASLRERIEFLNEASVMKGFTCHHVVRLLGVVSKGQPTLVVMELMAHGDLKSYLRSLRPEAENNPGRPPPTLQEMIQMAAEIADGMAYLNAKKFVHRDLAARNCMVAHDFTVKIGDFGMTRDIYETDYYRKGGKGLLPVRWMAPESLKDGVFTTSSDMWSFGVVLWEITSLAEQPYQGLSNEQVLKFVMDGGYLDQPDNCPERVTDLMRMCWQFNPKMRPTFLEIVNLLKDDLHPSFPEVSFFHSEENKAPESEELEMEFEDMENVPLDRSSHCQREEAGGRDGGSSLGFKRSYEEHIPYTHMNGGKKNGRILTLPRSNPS

[2] = biological target: Neurotensin receptor type 1 (Rattus norvegicus, UniProt P20789); experiment: Agonist activity at rat NTR1 expressed in CHO cells assessed as effect on [3H] phosphoinositide accumulation using neurotensin (1 to 13 residues) as substrate by radioactive assay; format: cell-based
Chain of Neurotensin receptor type 1 (P20789 whole entry, the tested form may be a part): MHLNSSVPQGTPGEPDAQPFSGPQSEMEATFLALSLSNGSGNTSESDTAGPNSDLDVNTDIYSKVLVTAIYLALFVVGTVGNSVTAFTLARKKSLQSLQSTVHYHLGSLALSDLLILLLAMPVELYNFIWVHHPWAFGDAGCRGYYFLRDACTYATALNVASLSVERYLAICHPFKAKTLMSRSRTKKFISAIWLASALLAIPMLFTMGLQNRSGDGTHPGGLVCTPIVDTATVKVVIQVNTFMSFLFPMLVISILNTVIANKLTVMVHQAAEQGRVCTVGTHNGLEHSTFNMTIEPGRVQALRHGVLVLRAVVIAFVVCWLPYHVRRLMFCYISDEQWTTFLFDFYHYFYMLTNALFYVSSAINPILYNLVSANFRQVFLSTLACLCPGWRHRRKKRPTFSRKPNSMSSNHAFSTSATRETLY

[3] = Agonist activity at Zebra fish V2R expressed in African green monkey COS-1 cells assessed as increase in intracellular calcium response by FLIPR assay; format: cell-based; settings: Danio rerio
Vasopressin V1b receptor = biological target: T1, Vasopressin V1b receptor (Homo sapiens, UniProt P47901); experiment: Agonist activity at human V1bR expressed in African green monkey COS-1 cells assessed as increase in intracellular calcium response by FLIPR assay; format: functional, cell-based
T1 sequence (P47901 whole entry): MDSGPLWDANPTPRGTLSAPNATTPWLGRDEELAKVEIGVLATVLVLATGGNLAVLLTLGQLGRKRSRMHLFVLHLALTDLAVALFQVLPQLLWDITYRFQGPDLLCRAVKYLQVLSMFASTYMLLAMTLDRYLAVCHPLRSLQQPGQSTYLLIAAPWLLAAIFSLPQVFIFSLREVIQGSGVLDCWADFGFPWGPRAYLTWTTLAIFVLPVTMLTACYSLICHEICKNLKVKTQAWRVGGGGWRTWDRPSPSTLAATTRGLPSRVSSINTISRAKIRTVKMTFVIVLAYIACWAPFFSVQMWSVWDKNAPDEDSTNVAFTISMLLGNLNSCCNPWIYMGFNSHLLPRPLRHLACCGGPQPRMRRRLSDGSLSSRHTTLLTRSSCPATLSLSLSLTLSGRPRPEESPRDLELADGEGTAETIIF

[4] = Agonist activity at Zebra fish V1a1R expressed in African green monkey COS-1 cells assessed as increase in intracellular calcium response by FLIPR assay; format: cell-based; settings: Danio rerio
[5] = biological target: Mas-related G-protein coupled receptor member X1 (Homo sapiens, UniProt Q96LB2); experiment: Activation of human MrgprX1 expressed in BAM 8-22 activated-rat KNRK cells by fura2-AM dye based calcium imaging assay; format: cell-based
Chain of Mas-related G-protein coupled receptor member X1 (Q96LB2 whole entry): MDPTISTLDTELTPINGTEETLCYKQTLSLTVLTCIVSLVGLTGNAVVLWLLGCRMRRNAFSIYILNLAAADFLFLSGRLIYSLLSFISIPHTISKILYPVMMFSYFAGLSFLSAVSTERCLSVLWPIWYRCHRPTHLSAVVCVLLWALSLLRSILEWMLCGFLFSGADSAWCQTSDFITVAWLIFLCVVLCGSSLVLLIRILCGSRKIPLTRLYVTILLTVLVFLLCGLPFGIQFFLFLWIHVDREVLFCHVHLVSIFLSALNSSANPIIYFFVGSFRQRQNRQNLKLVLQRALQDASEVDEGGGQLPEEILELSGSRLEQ

## CC[C@H](C)[C@H](NC(=O)[C@H](Cc1ccccc1)NC(=O)[C@H](CCC(=O)O)NC(=O)[C@H](CCCCN)NC(=O)[C@H](C)NC(=O)[C@H](C)NC(=O)[C@H](CCC(N)=O)NC(=O)CNC(=O)[C@H](CCC(=O)O)NC(=O)[C@H](CC(C)C)NC(=O)[C@H](Cc1ccc(O)cc1)NC(=O)[C@H](CO)NC(=O)[C@H](CO)NC(=O)[C@@H](NC(=O)[C@H](CC(=O)O)NC(=O)[C@H](CO)NC(=O)[C@@H](NC(=O)[C@H](Cc1ccccc1)NC(=O)[C@@H](NC(=O)CNC(=O)[C@H](CCC(=O)O)NC(=O)[C@H](C)NC(=O)[C@@H](N)Cc1cnc[nH]1)[C@@H](C)O)[C@@H](C)O)C(C)C)C(=O)N[C@@H](C)C(=O)N[C@@H](Cc1c[nH]c2ccccc12)C(=O)N[C@@H](CC(C)C)C(=O)N[C@H](C(=O)N[C@@H](CCCCN)C(=O)NCC(=O)N[C@@H](CCCNC(=N)N)C(=O)O)C(C)C
[1]
  half-life: 2 min

## CC[C@H](C)[C@H](NC(=O)[C@H](CC(C)C)NC(=O)[C@@H](Cc1ccc(O)cc1)NC(=O)[C@H](CCC(N)=O)NC(=O)[C@H](CC(N)=O)NC(=O)[C@H](Cc1ccc(O)cc1)NC(=O)[C@H](CCC(N)=O)NC(=O)[C@H](CC(C)C)NC(=O)[C@@H](Cc1ccc(O)cc1)NC(=O)[C@@H](Cc1ccc(O)cc1)NC(=O)[C@H](CCC(=O)O)NC(=O)CN)C(=O)N[C@@H](CCCNC(=N)N)C(=O)N[C@H](Cc1ccc(O)cc1)C(=O)N[C@@H](CCCCN)C(=O)N[C@@H](CO)C(=O)N[C@@H](CC(N)=O)C(N)=O
Insulin receptor
  EC50: 12 nM

## CC[C@H](C)[C@@H]1NC(=O)[C@H](Cc2ccc(O)cc2)NC(=O)[C@H](CO)NC(=O)[C@H](CC(N)=O)NC(=O)[C@@H]2CCCN2C(=O)[C@H]([C@@H](C)CC)NC(=O)[C@H](CC(C(=O)O)C(=O)O)NC(=O)[C@H](CO)NC(=O)CNC(=O)[C@@H]2CSSC[C@@H]3NC(=O)[C@@H](NC(=O)[C@H](Cc4cnc[nH]4)NC(=O)[C@H](CC(C(=O)O)C(=O)O)NC(=O)[C@@H](NC(=O)[C@@H](NC(=O)CN)C(C)C)C(C)C)CSSC[C@H](NC(=O)[C@@H]4CCCN4C(=O)[C@H](CCCNC(=N)N)NC(=O)[C@H](Cc4cnc[nH]4)NC3=O)C(=O)N[C@@H](CO)C(=O)N[C@@H](CC(N)=O)C(=O)N[C@@H](C)C(=O)N[C@@H](CCC(=O)O)C(=O)N[C@@H](Cc3ccccc3)C(=O)N[C@@H](CCCCN)C(=O)N[C@@H](CCCCN)C(=O)N[C@@H](Cc3ccccc3)C(=O)N[C@@H](CSSC[C@H](C(=O)N[C@@H](Cc3ccccc3)C(=O)O)NC(=O)[C@H](CC(C)C)NC(=O)[C@H](CC(=O)O)NC1=O)C(=O)N[C@@H](CC(N)=O)C(=O)N[C@@H](CO)C(=O)N[C@@H](CC(=O)O)C(=O)N[C@@H]([C@@H](C)O)C(=O)N1CC(O)C[C@H]1C(=O)N[C@@H](CCCCN)C(=O)N[C@@H](Cc1ccc(O)cc1)C(=O)N[C@@H](CCCNC(=N)N)C(=O)N2 (some centres undefined)
Insulin receptor
  EC50: 12 nM

## CC[C@H](C)[C@@H]1NC(=O)[C@H](CC(=O)O)NC(=O)[C@H](CO)NC(=O)CNC(=O)[C@@H]2CSSC[C@@H]3NC(=O)[C@@H](NC(=O)[C@H](Cc4cnc[nH]4)NC(=O)[C@H](CC(C(=O)O)C(=O)O)NC(=O)[C@@H](NC(=O)[C@@H](NC(=O)CN)C(C)C)C(C)C)CSSC[C@H](NC(=O)[C@@H]4CCCN4C(=O)[C@H](CCCNC(=N)N)NC(=O)[C@H](Cc4cnc[nH]4)NC3=O)C(=O)N[C@@H](CO)C(=O)N[C@@H](CC(N)=O)C(=O)N[C@@H](C)C(=O)N[C@@H](CCC(=O)O)C(=O)N[C@@H](Cc3ccccc3)C(=O)N[C@@H](CCCCN)C(=O)N[C@@H](CCCCN)C(=O)N[C@@H](Cc3ccccc3)C(=O)N[C@@H](CSSC[C@H](C(=O)N[C@@H](Cc3ccccc3)C(=O)O)NC(=O)[C@H](CC(C)C)NC(=O)[C@H](CC(=O)O)NC(=O)[C@H](CCSC)NC(=O)[C@H](Cc3ccc(O)cc3)NC(=O)[C@H](CO)NC(=O)[C@H](CC(N)=O)NC(=O)[C@@H]3CCCN3C1=O)C(=O)N[C@@H](CC(N)=O)C(=O)N[C@@H](CO)C(=O)N[C@@H](CC(=O)O)C(=O)N[C@@H]([C@@H](C)O)C(=O)N1CC(O)C[C@H]1C(=O)N[C@@H](CCCCN)C(=O)N[C@@H](Cc1ccc(O)cc1)C(=O)N[C@@H](CCCNC(=N)N)C(=O)N2 (some centres undefined)
Insulin receptor
  EC50: 12 nM

## CC[C@H](C)[C@H](NC(=O)[C@H](CC(C)C)NC(=O)[C@@H](Cc1ccc(O)cc1)NC(=O)[C@H](CCC(N)=O)NC(=O)[C@H](CC(N)=O)NC(=O)[C@H](Cc1ccc(O)cc1)NC(=O)[C@H](CCC(N)=O)NC(=O)[C@H](CC(C)C)NC(=O)[C@@H](Cc1ccc(O)cc1)NC(=O)[C@@H](Cc1ccc(O)cc1)NC(=O)[C@H](CCC(=O)O)NC(=O)CN)C(=O)N[C@@H](CCCNC(=N)N)C(=O)N[C@H](Cc1ccc(O)cc1)C(=O)N[C@@H](CCCCN)C(=O)N[C@@H](CO)C(=O)N[C@@H](CC(N)=O)C(=O)O
[2]
  EC50: 20 nM

## CC(C)C[C@H](NC(=O)[C@H](Cc1ccccc1)NC(=O)[C@@H](N)CS)C(=O)NCC(=O)N[C@@H](CC(N)=O)C(=O)N[C@@H](CS)C(=O)N1CCC[C@H]1C(=O)N[C@@H](CC(=O)O)C(=O)N[C@@H](CO)C(N)=O (H-CFLGNCPDS-NH2)
[3]
  EC50: 1000 nM

## CC(C)C[C@H](NC(=O)[C@H](Cc1ccccc1)NC(=O)[C@@H](N)CS)C(=O)NCC(=O)N[C@@H](CC(N)=O)C(=O)N[C@@H](CS)C(=O)N1CCC[C@H]1C(=O)N[C@@H](CC(=O)O)C(=O)N[C@@H](CO)C(=O)O (H-CFLGNCPDS-OH)
[3]
  EC50: 1000 nM

## NC(=O)C[C@H](NC(=O)CNC(=O)[C@@H]1CCCN1C(=O)[C@H](Cc1ccccc1)NC(=O)[C@@H](N)CS)C(=O)N[C@@H](CS)C(=O)N1CCC[C@H]1C(=O)N[C@@H](CC(=O)O)C(=O)N[C@@H](CO)C(N)=O (H-CFPGNCPDS-NH2)
Vasopressin V1b receptor
  EC50: 1000 nM
[4]
  EC50: 1000 nM

## H-AWSGPRNRFVRF-OH
[5]
  EC50: 1800 nM

## H-GIV[Gla]DCCYNDCTDEKLKEYCHTLQSDSGTTLVRRRLCGS[Gla]LVTYLGELCLGN-OH (disulfide 6-11, 7-37, 20-49)
Insulin receptor
  EC50: 12 nM

## H-GVV[Gla]HCCKRACSNA[Gla]FMQFCNSDTPWNRCGSQITDSYR[Gla]LCPH-OH (disulfide 6-11, 7-29, 20-41)
Insulin receptor
  EC50: 12 nM

## H-HSGFLLAWSGPRNRFVRF-OH
[5]
  EC50: 1800 nM

## H-HSGILLAWSGPRNRFVRI-OH
[5]
  EC50: 500 nM
